What all share (assay type): cell-based, human
The test system of one assay is K562 cell line. In words: Testing on K562 leukemia cell line (MTT cytotoxicity). As to conditions: K562 cells, 72 h incubation, preliminary screening, read-out: K562 (CML) IC50. As for the experimental part: (§1) Retinoates of harringtonines described in this invention were tested on K562 cell line which is derived from the pleural effusion of a person with chronic myelogenous leukemia (CML, bcr-abl positive) in terminal blast crises (Lozzio and Lozzio, Blood, 1975, p321). The cell line was purchased from ATCC (American Tissue Culture Collection) and grown in RPMI medium supplemented with 10% heat-inactivated fetal calf serum, 2 mmol/L glutamine, […] penicillin and […] streptomycin. All tested products were initially dissolved in 2N HCl (pH=2) (alkaloid base) or in aqueous solvent (salt) or in DMSO (retinoids), supplemented with ultrasound treatment during 1 h. Working concentrations were made by dilution in culture medium (pH 7). Cells in exponential growth phase were placed into 96-microwell plates in concentration 3x10^4/mL (total volume 200 µL/well) and incubated with drugs for 72 h at 37° C. in 5% CO2 humidified atmosphere. Following incubation, 28 µL of MTT 3-(4,5 dimethylthiazol-2-yl)-2,5 tetrazolium bromide] dye solution (Sigma, St. Louis, Mo.) was added to each well. During the following 6 h of incubation at 37° C., the purple formazan product was formed by conversion of the yellow MTT salt in the mitochondria of the viable cells. The resulting precipitate was dissolved in DMSO and the amount of converted MTT was quantified in an ELISA reader (MR 5000, Dynatech). Each product was tested in triplicate (3x8 wells). Every test contained at least one plate with HHT as control, added in the same concentration as the tested products.

In a further assay the test system is HL-60 cell line. In words: Testing on HL-60 leukemia cell line (MTT cytotoxicity). Particulars: HL-60 cells, medium with 20% fetal bovine serum, preliminary screening, read-out: HL60 (APL) IC50. As for the experimental part: as §1
Retinoates of harringtonines described in this invention were tested on HL-60 cell line, derived from acute promyelocytic leukemia (APL) cells. HL-60 is a promyelocytic cell line derived by S.J. Collins, et al. (Proc. Natl. Acad. Sci. USA 1978 p2458). Peripheral blood leukocytes were obtained by leukopheresis from a person with APL (Gallagher R, et al. Blood 1978, p713) The cell line was purchased from ATCC (American Tissue Culture Collection) and the base growth medium was also completed with fetal bovine serum but at a final concentration of 20%, otherwise the same method than the one of example 10 was used.
Preliminary screening using this tumor cell lines are gathered in table 1.

Another assay relates to MDA-MB-468. Description: Testing on breast cancer cell lines, sulforhodamine B (SRB) cell viability assay. Particulars: MDA-MB-468 breast cancer cells, preliminary screening, read-out: M DA-MB-468 (BC) IC50. As for the experimental part: Operating Procedure were performed as described in the recent paper of Yakhni et al [Yakhni AM J CANCER RES 2019; 9(5) in press "Homoharringtonine, on approved anti-leukemia drug, suppresses triple negative breast cancer growth through a rapid reduction of anti-apoptotic protein abundance"]
The cell lines used in this study were MDA-MB-231 (ATCC® HTB-26™), MDA-MB-468 (ATCC® HTB-132™), MDA-MB-157 (ATCC® HTB-24™) and CAL-51. Those lines were chosen to represent the BRCA1/2 non-mutated TNBC transcriptomic subtypes, currently most in need of efficacious treatment due to lower sensibility of BRCA1 wild-type TNBC to the DNA-damaging chemotherapy (Masuda et al., Clin Cancer Res. 2013, p5533; Jiang et al., PLoS Med. 2016, pe1002193; Park et al. ESMO Open. 2018, pe000357). CAL-51 line represents the mesenchymal transcriptomic subtype whereas MDA-MB-157 and MDA-MB-231 represent the mesenchymal stem-like subtype (Lehmann et al. J Clin Invest. 2011, p2750). MDA-MB-468 was used as a model of aggressive, PTEN-negative TNBC, with hyperactivated EGFR signaling pathway due to EGFR amplification (Filmus et al., Biochem Biophys Res Commun. 1985, p898). MDA-MB-468 transcriptome classifies it into the basal-like 1 subtype (49). The MDA lines were purchased from the American Type Culture Collection (ATCC, Manassas, VA, USA). The CAL-51 was kindly provided by Dr Gerard Milano, from the Centre Antoine Lacassagne, Nice, France, where the line has been established (Gioanni et al., Br J Cancer 1990, p8). After initial expansion, the cell line stock vials were conserved, in liquid nitrogen, at the Biological Resource Center of Jean Perrin Comprehensive Cancer Center (biobank ID BB-0033-00075, Clermont-Ferrand, France). The MDA cell lines were cultured in the Leibovitz L-15 medium, whereas CAL-51 line was maintained in DMEM (both media from Invitrogen Life Technologies, Carlsbad, CA, USA). The media were supplemented with 10% heat-inactivated fetal bovine serum and […] gentamicin. CAL-51 line was kept at 37°C, in a humidified atmosphere with 5% CO2; the MDA lines were kept under the same conditions, however, without CO2, in a free gas exchange with atmospheric air. All cell lines were maintained in monolayer culture, in the sub-confluent status, with no more 30 passages of the cells thawed from the stock vial.
Homoharringtonine was supplied by LeukePharma Inc. (Houston, TX, USA) as water-soluble, crystalline tartaric acid salt. Initial stock solution of HHT-tartrate was prepared at 10 mM in sterile deionized water, aliquoted and kept at -80°C. For each experiment, a fresh HHT solution was prepared by dissolving the HHT stock in phosphate-buffered saline (PBS, GIBCO™, Invitrogen, Cergy-Pontoise, France).
Cell viability was assessed using the sulforhodamine B (SRB) assay (Sigma-Aldrich, St Louis, MO, USA) according to the method described by Vichai and Kirtikara (Nat Protoc. 2006, p1112). Cells were seeded in 96-well plates, at 5x10^3 or 1x10^3 cells/well (the MDA cell lines and CAL-51, respectively), left overnight to adhere and then treated with growing concentrations of HHT for 24h, 48h or 72h. After incubation with the drug, cells were washed twice with PBS and left for 72 h in the corresponding complete culture medium. Then the cells were fixed with trichloroacetic acid (final concentration 10%) at 4°C for 1 h, followed with plate washing with water five times, air drying and staining with 0.4% SRB dissolved in 1% acetic acid, at room temperature, for 30 min. The plates were subsequently washed four times with 1% acetic acid to remove unbound stain. To solubilize the protein-bound dye, 10 mM Tris base solution was added to each well. The cell viability, estimated through the present protein biomass, was determined by measuring optical density of the dye, using a spectrophotometer at wavelength of 540 nm (BMG Labtech, Ortenberg, Germany).
Preliminary screening using these tumor cell lines are gathered in table 1.

What is called IC50 is the midpoint of a concentration-inhibition curve. Turning to `CC1=C(/C=C/C(C)=C/C=C/C(C)=C/C(=O)O)C(C)(C)CCC1.COC(=O)C[C@](O)(CCCC(C)(C)O)C(=O)O[C@@H]1C(OC)=C[C@]23CCCN2CCc2cc4c(cc2[C@H]13)OCO4` (relative stereo) [Example 1, homoharringtonine all-trans-retinoate], the IC50 in the assay with K562 cell line is below 50 nM; with HL-60 cell line, below 100 nM; with MDA-MB-468 it was below 50 nM.
Regarding `CC1=C(/C=C/C(C)=C/C=C/C(C)=C/C(=O)O)C(C)(C)CCC1.COC(=O)C[C@@]1(C(=O)O[C@@H]2C(OC)=C[C@]34CCCN3CCc3cc5c(cc3[C@H]24)OCO5)CCCC(C)(C)O1` (relative stereo) [Example 18, Anhydrohomoharringtonine all-trans-retinoate], the figures for the half-inhibitory concentration (IC50) in the assay on K562 cell line, in the assay with HL-60 cell line and in the assay on MDA-MB-468 were below 50 nM, below 100 nM and below 50 nM, respectively.
Turning to `CC1(C)CCC(C)(C)c2cc(NC(=O)c3ccc(C(=O)O)cc3)ccc21.COC(=O)CC(O)(CCCC(C)(C)O)C(=O)OC1C(OC)=CC23CCCN2CCc2cc4c(cc2C13)OCO4` (centres unmarked) [Example 5, homoharringtonine tamibarotenoate], the concentration for half-maximal inhibition (IC50) with K562 cell line is below 20 nM; in the assay with HL-60 cell line it was below 50 nM; in the assay with MDA-MB-468 it was below 20 nM.
For the compound `C=C(c1ccc(C(=O)O)cc1)c1cc2c(cc1C)C(C)(C)CCC2(C)C.COC(=O)C[C@](O)(CCCC(C)(C)O)C(=O)O[C@@H]1C(OC)=C[C@]23CCCN2CCc2cc4c(cc2[C@H]13)OCO4` [Example 7, homoharringtonine "bexarotenoate"], the IC50 with K562 cell line, in the assay on HL-60 cell line and in the assay with MDA-MB-468 was below 20 nM in each case.
In the case of `COC(=O)C[C@](O)(CCCC(C)(C)O)C(=O)O[C@@H]1C(OC)=C[C@]23CCCN2CCc2cc4c(cc2[C@H]13)OCO4.COc1ccc(-c2ccc3cc(C(=O)O)ccc3c2)cc1C12CC3CC(CC(C3)C1)C2` [Example 8, homoharringtonine "adapalenoate"], the IC50 in the assay on K562 cell line is below 50 nM; with HL-60 cell line, below 100 nM; with MDA-MB-468, below 50 nM.
On to `CC1(C)CC=C(c2cnc3ccccc3c2)c2cc(C(=O)Nc3ccc(C(=O)O)cc3)ccc21.COC(=O)CC(O)(CCCC(C)(C)O)C(=O)O[C@@H]1C(OC)=C[C@]23CCCN2CCc2cc4c(cc2[C@H]13)OCO4` (stereo partly drawn) [Example 10, Butanedioic acid, 2-hydroxy-2-(4-hydroxy-4-methylpentyl)-, 1-[(1S,3aR,14bS)-1,5,6,8,9,14b-hexahydro-2-methoxy-4H-cyclopenta[c][1,3]dioxolo[4,5-h]pyrrolo[2,1-b][3]benzazepin-1-yl]4-methyl ester, 4-[[[5,6-Dihydro-5,5-dimethyl-8-(3-quinolinyl)-2-naphthalenyl]carbonyl]amino]benzoate], for which the IC50 in the assay on K562 cell line was below 50 nM; in the assay on HL-60 cell line it was below 100 nM; in the assay with MDA-MB-468, below 50 nM.
`COC(=O)CC(O)(CCCC(C)(C)O)C(=O)O[C@@H]1C(OC)=C[C@]23CCCN2CCc2cc4c(cc2[C@H]13)OCO4.O=C(O)c1ccc2cc(-c3ccc(O)c(C45CC6CC(CC(C6)C4)C5)c3)ccc2c1` (stereo partly drawn) [Example 11, Butanedioic acid, 2-hydroxy-2-(4-hydroxy-4-methylpentyl)-, 1-[(1S,3aR,14bS)-1,5,6,8,9,14b-hexahydro-2-methoxy-4H-cyclopenta[a][1,3]dioxolo[4,5-h]pyrrolo[2,1-b][3]benzazepin-1-yl]4-methyl ester, 6-[3-(1-adamantyl)-4-hydroxyphenyl]-2-naphtalenecarboxylate]: the values for the IC50 in the assay with K562 cell line, in the assay on HL-60 cell line and in the assay with MDA-MB-468 were below 50 nM, below 100 nM and below 50 nM, respectively.
For `COC(=O)CC(O)(CCCC(C)(C)O)C(=O)O[C@@H]1C(OC)=C[C@]23CCCN2CCc2cc4c(cc2[C@H]13)OCO4.O=C(O)c1ccc(-c2ccc3cc(O)c(C45CC6CC(CC(C6)C4)C5)cc3c2)cc1` (stereo partly drawn) [Example 12, Butanedioic acid, 2-hydroxy-2-(4-hydroxy-4-methylpentyl)-, 1-[(1S,3aR,14bS)-1,5,6,8,9,14b-hexahydro-2-methoxy-4H-cyclopenta[a][1,3]dioxolo[4,5-h]pyrrolo[2,1-b][3]benzazepin-1-yl]4-methyl ester, 4-(6-Hydroxy-7-tricyclo[3.3.1.1^3,7]dec-1-yl-2-naphthalenyl)benzoate], the IC50 was below 50 nM in the assay with K562 cell line, below 100 nM in the assay on HL-60 cell line and below 50 nM with MDA-MB-468.
As for `CC1(C)C(=O)C(C)(C)c2cc(C(=O)Nc3ccc(C(=O)O)cc3)ccc21.COC(=O)CC(O)(CCCC(C)(C)O)C(=O)O[C@@H]1C(OC)=C[C@]23CCCN2CCc2cc4c(cc2[C@H]13)OCO4` (stereo partly drawn) [Example 15, Butanedioic acid, 2-hydroxy-2-(4-hydroxy-4-methylpentyl)-, 1-[(1S,3aR,14bS)-1,5,6,8,9,14b-hexahydro-2-methoxy-4H-cyclopenta[a][1,3]dioxolo[4,5-h]pyrrolo[2,1-b][3]benzazepin-1-yl]4-methyl ester, 4-[[(2,3-Dihydro-1,1,3,3-tetramethyl-2-oxo-1H-inden-5-yl)carbonyl]amino]benzoate], the figures for the IC50 in the assay on K562 cell line, with HL-60 cell line and in the assay with MDA-MB-468 were below 50 nM, below 100 nM and below 50 nM, respectively.
Turning to `COC(=O)CC1(C(=O)OC2C(OC)=CC34CCCN3CCc3cc5c(cc3C24)OCO5)CCCC(C)(C)O1.COc1cc(C)c(C=CC(C)=CC=CC(C)=CC(=O)O)c(C)c1C` (centres unmarked) [Example 19, anhydrohomoharringtonine "acitretinoate"], the IC50 with K562 cell line and in the assay with MDA-MB-468 was above 100 nM throughout.
Consider `CC1(C)CCC(C)(C)c2cc(C(=O)Nc3ccc(C(=O)O)cc3)ccc21.COC(=O)C[C@](O)(CCCC(C)(C)O)C(=O)O[C@@H]1C(OC)=C[C@]23CCCN2CCc2cc4c(cc2[C@H]13)OCO4` [Example 23, homoharringtonine Am 580 salt], for which the 50% inhibitory concentration (IC50) is below 50 nM in the assay with K562 cell line, below 100 nM in the assay with HL-60 cell line and below 50 nM in the assay on MDA-MB-468.
